Measured values taken from PubChem BioAssay (NCI).
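Following 48 hours of exposure in 96-well plates, responses at five concentrations were used to interpolate endpoints linearly. The concentration for full growth arrest is given as TGI.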

Tests used:
Experiment in all cases: inhibition of tumour cell growth, NCI panel, 48 h
A498 renal = system: A498 renal
CCRF-CEM leukemia = system: CCRF-CEM leukemia
RXF 393 renal = system: RXF 393 renal
TK-10 renal = system: TK-10 renal
HOP-62 NSCLC = system: HOP-62 NSCLC
OVCAR-5 ovarian = system: OVCAR-5 ovarian
UO-31 renal = system: UO-31 renal
RPMI-8226 leukemia = system: RPMI-8226 leukemia
M14 melanoma = system: M14 melanoma
XF 498 CNS = system: XF 498 CNS
LXFL 529 NSCLC = system: LXFL 529 NSCLC

SMILES | TGI (A498 renal) [µM] | TGI (CCRF-CEM leukemia) [µM] | TGI (RXF 393 renal) [µM] | TGI (TK-10 renal) [µM] | TGI (HOP-62 NSCLC) [µM] | TGI (OVCAR-5 ovarian) [µM] | TGI (UO-31 renal) [µM] | TGI (RPMI-8226 leukemia) [µM] | TGI (M14 melanoma) [µM] | TGI (XF 498 CNS) [µM] | TGI (LXFL 529 NSCLC) [µM]
CC1=NNC(=O)C1C1CC(c2c[nH]c3ccccc23)=NN=C1Cl (centres undefined) | > 100 | 69.2 | > 100 | > 100 | > 100 | > 100 | > 100 | 81.6 | > 100 |  | 
CC(C)N1CN(c2ccccc2)C2(CCN(CCCC(=O)c3ccc(F)cc3)CC2)C1=O | 7.06 | 9.61 | > 82.2 | > 49.5 | 11.9 | 30.9 | 58 | 31.1 | 31.1 |  | 
C(=C\c1ccccc1)/COc1ccccc1C(N1CCOCC1)n1nc2ccccc2n1 (centres undefined) | > 100 | 6.14 | 19.4 | 32.4 | 20.4 | 44.9 | 31.6 | 12.2 | 13.5 |  | 
Nc1nc(Nc2ccccc2)sc1C(=O)c1ccco1 | 39.6 | 17.1 | 30.8 | 35.9 | 67.8 | 71.5 | 30.2 | 42.2 | 36.9 |  | 
COC(=O)[C@H](Cc1ccccc1)NC(=O)N(CCC#N)CCN(C(=O)N[C@@H](Cc1ccccc1)C(=O)OC)c1ccccc1 | 39.8 | 87 | 37.7 | 41.6 | > 100 | > 100 | 31.9 | 43.9 | 55.1 |  | 
Cc1cc(O)c(-c2cc(O)c(C)cc2O)cc1O | 41.8 | 3.8 | 5.93 | 16 | 32.6 | 32.9 | 5.4 | 4.07 | 22.9 |  | 
COC(=O)C1(O)C(c2ccccc2)=NC2(C)CCCC21 (centres undefined) | > 100 | > 100 | > 100 | > 100 | > 100 | > 100 | > 100 | > 100 | > 100 |  | 
COC1C(O)C(O[C@H]2CC[C@@]3(C)C(CC[C@@H]4[C@@H]3CC[C@]3(C)[C@@H](C(C)OC5OC(CO)C(O)C(O)C5O)CC[C@]43O)C2)OC(C)C1OC1OC(CO)C(O)C(O)C1O (some centres undefined) | > 100 | > 100 | > 100 | > 100 | > 100 | > 100 | > 100 | > 100 | > 100 |  | 
Cc1c(-c2ccccc2)[nH]n(C2=NCCN2)c1=O | > 100 | > 100 | > 100 | > 100 | > 100 | > 100 | > 100 | > 100 | > 100 |  | 
CSc1nc2c(ncn2C2OC(CO)C(O)C(O)C2O)c(=O)[nH]1 (centres undefined) | > 100 | > 100 | > 100 |  | > 100 | > 100 | > 100 | > 100 |  | > 100 | 
O=C1C2=C(CCC2)Nc2cccc3ncn1c23 |  | > 100 | > 100 | 75.7 |  | > 100 | > 100 | > 100 |  | > 100 | > 100
C=C1C(=O)C23C(O)CC4C5(C)CCCC4(C(O)OC5)C2C(OC(C)=O)CC1C3O (centres undefined) |  | 10.7 |  | 23.1 | 32.2 | 31.9 | > 100 | 17.7 | 15.1 |  | 12.2
CCNc1ncnc2sc(SCc3ccccc3)nc12 | > 100 | > 100 | > 100 | > 100 | > 100 | > 100 | > 100 | > 100 | > 100 |  | 
Clc1ccc(/C(=C\c2ccccc2)Cn2ccnc2)cc1 | 42.1 | > 100 | 42.2 | > 100 | 38.3 | 63 | 32.4 | 73.7 | 39.4 |  | 
COc1cc2[nH]c(-c3ccccc3)cc(=O)c2c(OC)c1OC | > 100 | > 100 | > 100 | > 100 | > 100 | > 100 | > 100 | > 100 | > 100 |  | 
CCOC(=O)C1=CC(C)(C(=O)OCC)Nc2c(nc(N)[nH]c2=O)N1 (centres undefined) | > 10 | > 10 | > 10 | > 10 | > 10 | > 10 | > 10 | > 10 | > 10 |  | 
COc1ccc(N2C(=O)C3c4[nH]c5ccccc5c4C4CCCCCCCCCC4C3C2=O)cc1 (centres undefined) | > 10 | > 10 | > 10 | > 10 | > 10 | > 10 | > 10 | > 10 | > 10 |  | 
O=C(O)/C=C\C(=O)Nc1ccc(S(=O)(=O)c2ccc(NC(=O)/C=C\C(=O)O)cc2)cc1 |  | > 100 |  | > 100 | > 100 | > 100 | > 100 | > 100 | > 100 | > 100 | > 100
COc1ccc(/C=N/n2c(C)nc3c(sc(=S)n3-c3ccccc3)c2=O)cc1 | > 100 | 54.2 |  | > 100 | > 100 | > 100 | > 100 | > 100 |  |  | > 100
O=C(CC(C(=O)c1ccco1)c1ccco1)c1ccco1 (centres undefined) | > 100 | > 100 | > 100 | > 100 | > 100 | > 100 | 92.5 | > 100 | > 100 |  | 
CCN(CC)CCO/N=C1\CC[C@H]2[C@@H]3CCc4cc(OC)ccc4[C@H]3CC[C@]12C | 9.28 | 4.86 | 3.92 | 15.9 | 3.73 | 12.4 | 7.77 | 4.26 | 1.82 |  | 
COc1ccc(Oc2cnn(C(Br)(Br)C(C)=O)c(=O)c2Br)cc1 | 59.9 | 4.57 | 16.8 | 26.3 | 35.5 | 32.2 | 26.8 | 11.8 | 30.6 |  | 
